Key:
Experiment in all cases: Broth microdilution antifungal susceptibility test (NCCLS M27A based), MIC
Format in all cases: cell-based
Details in all cases: quality control range for control compounds, 35° C., 48 hours
[1] = tested on: Candida albicans, e.g., ATCC 10231
Source text: (§1) Non-limiting examples of such procedures test the candidate inhibitor compounds for antifungal activity against a panel of three strains: C. albicans, S. cerevisiae , and A. nidulans. One such procedure is based on the NCCLS M27A method (The National Committee for Clinical Laboratory Standards, Reference Method for Broth Microdilution Antifungal Susceptibility Testing of Yeasts; approved standard, 1997) to measure minimum inhibitory concentrations (MICs) and minimum fungicidal concentrations (MFCs). An overview of this of this protocol follows.
(§2) 3. RPMI-1640: 10.4 g powdered media (Sigma R-6504, w/ glutamine & w/o bicarbonate); 2.0 g NaHCO3 (Sigma S-6297); 34.53 g MOPS buffer (Sigma M-6270). Dissolve powdered media and NaHCO3 in 900 ml distilled water. Add MOPS and stir until dissolved. Adjust pH to 7.0 using 1N NaOH. Bring final volume to 1 liter, filter sterilize, and store at 4° C.
(§3) 1. Yeasts: Yeasts (Saccharonyces cerevisiae and Candida albicans) are cultured on Sabouraud dextrose agar (SDA) plates in a 35° C. incubator. Strains on SDA plates are stored at 4° C. and used as working stock cultures. Working stock plates are prepared once a month from frozen stocks of cells. Inoculum for susceptibility testing is prepared from fresh 24 hour cultures. 5-10 colonies are scraped from the plate and suspended in three milliliters of sterile 0.85% saline (8.5 g/liter NaCl). The cell density of the solution is determined by measuring the absorbance in a spectrophotometer (Shimadzu UV-1201S UV-VIS Spectrophotometer) set at 600 nm. An absorbance value between 0.1 and 0.4 is required for an accurate reading. […]
(§4) Stock solutions of control compounds (1.6 mg/ml, Amphotericin B or Itraconazole) are initially diluted in medium to a concentration of 32 ug/ml while stock solutions of test compounds (typically 12.8 mg/ml) are diluted to 256 ug/ml. […] If a stock solution of a test compound is not at 12.8 mg/ml, the appropriate dilution must be calculated. […]

[2] = tested on: Saccharomyces cerevisiae, e.g., CTY552
Source text: as §1, §2, §3, §4

[3] = tested on: Aspergillus nidulans, e.g., NRRL 194 (ATCC 38163)
Source text: as §1
3. RPMI-1640: 10.4 g powdered media (Sigma R-6504, w/ glutamine & w/o bicarbonate); 2.0 g NaHCO3 (Sigma S-6297); 34.53 g MOPS buffer (Sigma M-6270). Dissolve powdered media and NaHCO3 in 900 ml distilled water. Add MOPS and stir until dissolved. Adjust pH to 7.0 using 1N NaOH. […]
2. […] The turbidity of the solution is determined by measuring the absorbance in a spectrophotometer (Shimadzu UV-1201S UV-VIS Spectrophotometer) set at 600 nm. An absorbance value between 0.1 and 0.4 is required for an accurate reading. […]
as §4

| Structure (SMILES) | Acceptable MIC range values [1] | Acceptable MIC range values [2] | Acceptable MIC range values [3] |
| --- | --- | --- | --- |
| C[C@@H]1[C@H](O)[C@@H](C)/C=C/C=C/C=C/C=C/C=C/C=C/C=C/[C@H](O[C@@H]2O[C@H](C)[C@@H](O)[C@H](N)[C@@H]2O)C[C@@H]2O[C@](O)(C[C@@H](O)C[C@@H](O)[C@H](O)CC[C@@H](O)C[C@@H](O)CC(=O)O[C@H]1C)C[C@H](O)[C@H]2C(=O)O [Am B, Amphotericin B] | 0.25 to 1.0 mg/L | 0.25 to 1.0 mg/L | 0.5 to 2.0 mg/L |
| CCC(C)n1ncn(-c2ccc(N3CCN(c4ccc(OCC5COC(Cn6cncn6)(c6ccc(Cl)cc6Cl)O5)cc4)CC3)cc2)c1=O (centres unmarked) [Itraconazole] | 0.25 to 1.0 mg/L |  | 0.25 to 1.0 mg/L |
